Assay results taken from the supplement of paper PMC11061612.

Tests used:
Assay in all cases: combination Emax (second highest fraction inhibited in the dose matrix, 72 h); higher = more inhibition; extreme values may be limits of the assay
[1] = tested on: OVCA420 (Ovarian Carcinoma)
Outline: (§1)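 Cell lines in DMEM/F12 or RPMI with 10% FBS were plated in 1536-well plates, held 24 hours at 37°C, 5% CO2, then given two-drug dose matrices for 72 hours (DMSO typically 0.2%). Viability was read by CellTiter-Glo 2.0 luminescence and scaled as inhibition from 0 (vehicle wells) to 1 (blank wells). Combination Emax is the second-highest inhibition in the matrix; Bliss excess is observed combination effect minus expected EA + EB − EA·EB, EA and EB being single-agent effects.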

[2] = tested on: KELLY (Neuroblastoma)
Outline: as §1

[3] = tested on: CAL-148 (Breast Carcinoma)
Outline: as §1

[4] = tested on: SK-ES-1 (Ewing's Sarcoma)
Outline: as §1

[5] = tested on: LNCaP-Clone-FGC (Prostate Carcinoma)
Outline: as §1

[6] = tested on: Ramos-2G6-4C10 (Burkitt's Lymphoma)
Outline: as §1

[7] = tested on: LU-135 (Small Cell Lung Carcinoma)
Outline: as §1

[8] = tested on: KYSE-520 (Esophageal Squamous Cell Carcinoma)
Outline: as §1

[9] = tested on: DoTc2-4510 (Cervical Carcinoma)
Outline: as §1

[10] = tested on: B-CPAP (Thyroid Gland Carcinoma)
Outline: as §1

[11] = tested on: NB10 (Neuroblastoma)
Outline: as §1

[12] = tested on: Calu-3 (Lung Adenocarcinoma)
Outline: as §1

[13] = tested on: ME-1 (Acute Myeloid Leukemia)
Outline: as §1

[14] = tested on: HCC1806 (Breast Carcinoma)
Outline: as §1

[15] = tested on: RO82-W-1 (Thyroid Gland Carcinoma)
Outline: as §1

[16] = tested on: HOS (Osteosarcoma)
Outline: as §1

[17] = tested on: NOS-1 (Osteosarcoma)
Outline: as §1

[18] = tested on: COLO-205 (Colorectal Carcinoma)
Outline: as §1

[19] = tested on: KURAMOCHI (Ovarian Carcinoma)
Outline: as §1

[20] = tested on: LS-180 (Colorectal Carcinoma)
Outline: as §1

Compound | combination Emax [1] | combination Emax [2] | combination Emax [3] | combination Emax [4] | combination Emax [5] | combination Emax [6] | combination Emax [7] | combination Emax [8] | combination Emax [9] | combination Emax [10] | combination Emax [11] | combination Emax [12] | combination Emax [13] | combination Emax [14] | combination Emax [15] | combination Emax [16] | combination Emax [17] | combination Emax [18] | combination Emax [19] | combination Emax [20]
Cc1c2c(nn1C)CSCc1cc(n(C)n1)CSc1cc(c3ccccc3c1)OCCCc1c(C(=O)O)n(C)c3c-2c(Cl)ccc13 [AZD5991] + C[C@@H](Nc1cc(F)cc(F)c1)c1cc(C(=O)N(C)C)cc2c(=O)cc(N3CCOCC3)oc12 [AZD8186] (first compound max 1 µM, 7x7, partner max 3 µM) | 0.282 | 0.726 | 0.335 | 0.866 | 0.894 | 0.959 | 0.417 | 0.412 | 0.384 | 0.227 | 0.179 | 0.175 | 0.787 | 0.6 | 0.367 | 0.174 | 0.84 | 0.14 | 0.404 | 
Cc1c2c(nn1C)CSCc1cc(n(C)n1)CSc1cc(c3ccccc3c1)OCCCc1c(C(=O)O)n(C)c3c-2c(Cl)ccc13 [AZD5991] + C[C@@H]1COCCN1C2=NC(=NC(=C2)C3(CC3)[S@](=N)(=O)C)C4=C5C=CNC5=NC=C4 [AZD6738] (first compound max 1 µM, 7x7, partner max 10 µM) | 0.494 | 0.991 | 0.942 | 1 | 0.688 | 1 | 0.736 | 0.583 | 0.677 | 0.522 | 0.86 | 0.275 | 0.798 | 0.961 | 0.525 | 0.789 | 1 | 0.511 | 0.634 | 0.707
NC1(C(=O)N[C@@H](CCO)c2ccc(Cl)cc2)CCN(c2ncnc3[nH]ccc23)CC1 [Capivasertib] + CC(C)n1c(=O)n(C)c2cnc3cc(F)c(-c4ccc(OCCCN5CCCCC5)nc4)cc3c21 [AZD1390] (first compound max 10 µM, 7x7, partner max 0.3 µM) | 0.21 | 0.256 | 0.971 | 0.448 | 0.956 | 0.447 | 0.267 | 0.467 | 0.234 | 0.261 | 0.221 | 0.288 | 0.237 | 0.267 | 0.244 | 0.41 | 0.322 | 0.416 | 0.294 | 0.33
CCN(CCO)CCCOc1ccc2c(Nc3cc(CC(=O)Nc4cccc(F)c4)[nH]n3)ncnc2c1 [AZD2811] + C[C@@H]1COCCN1C2=NC(=NC(=C2)C3(CC3)[S@](=N)(=O)C)C4=C5C=CNC5=NC=C4 [AZD6738] (first compound max 1 µM, 7x7, partner max 10 µM) | 0.443 | 0.992 | 1 | 0.968 | 0.736 | 0.911 | 0.929 | 0.558 | 0.675 | 0.407 | 0.771 | 0.217 | 0.516 | 0.931 | 0.405 | 0.652 | 0.288 | 0.849 | 0.569 | 0.754
COc1cccc(OCCCN)c1-c1cc(Nc2cnc(C#N)cn2)n[nH]1 [Prexasertib] + O=C(c1cc(Cc2n[nH]c(=O)c3ccccc23)ccc1F)N1CCN(C(=O)C2CC2)CC1 [Olaparib] (first compound max 1 µM, 7x7, partner max 10 µM) | 0.733 | 0.98 | 0.696 | 1 | 0.851 | 1 | 0.493 | 0.548 | 0.875 | 0.763 | 0.797 | 0.381 | 0.61 | 0.999 | 0.45 | 0.854 | 0.373 | 0.573 | 0.68 | 0.724
COc1nnc2ccc(N3CCC(c4ccc(OCCN5CCN(C)C(=O)[C@H]5C)cc4)CC3)nn12 [AZD5153] + CC1(C)CCC(CN2CCN(c3ccc(C(=O)NS(=O)(=O)c4ccc(NCC5CCOCC5)c([N+](=O)[O-])c4)c(Oc4cnc5[nH]ccc5c4)c3)CC2)=C(c2ccc(Cl)cc2)C1 [Venetoclax] (first compound max 1 µM, 7x7, partner max 1 µM) | 0.792 | 0.367 | 0.557 | 0.579 | 0.743 | 0.589 | 0.98 | 0.615 | 0.385 | 0.622 | 0.527 | 0.621 | 1 | 0.645 | 0.407 | 0.454 | 0.728 | 0.566 | 0.747 | 0.61
Cc1c2c(nn1C)CSCc1cc(n(C)n1)CSc1cc(c3ccccc3c1)OCCCc1c(C(=O)O)n(C)c3c-2c(Cl)ccc13 [AZD5991] + C=CCn1c(=O)c2cnc(Nc3ccc(N4CCN(C)CC4)cc3)nc2n1-c1cccc(C(C)(C)O)n1 [AZD1775] (first compound max 1 µM, partner max 1 µM) | 0.399 | 1 | 1 | 0.985 | 0.769 | 1 | 0.581 |  | 0.523 | 0.467 | 0.6 | 0.197 | 0.793 | 0.972 | 0.506 | 0.432 | 0.982 | 0.684 | 0.796 | 0.47
C[C@@H]1COCCN1c1cc(C2([S@](C)(=N)=O)CC2)nc(-c2ccnc3[nH]ccc23)n1 [AZD6738] + O=C(c1cc(Cc2n[nH]c(=O)c3ccccc23)ccc1F)N1CCN(C(=O)C2CC2)CC1 [Olaparib] (first compound max 10 µM, 7x7, partner max 10 µM) | 0.364 | 0.897 | 0.935 | 0.933 | 0.73 | 0.779 | 0.604 |  | 0.7 | 0.498 | 0.811 | 0.193 | 0.538 | 0.89 | 0.353 | 0.685 | 0.326 | 0.301 | 0.549 | 0.733
CS(=O)(=O)CCNCc1ccc(-c2ccc3ncnc(Nc4ccc(OCc5cccc(F)c5)c(Cl)c4)c3c2)o1 [Lapatinib] + NC1(c2ccc(-c3nc4ccn5c(=O)[nH]nc5c4cc3-c3ccccc3)cc2)CCC1 [MK-2206] (first compound max 10 µM, 7x7, partner max 10 µM) | 0.884 | 0.959 | 0.996 |  |  | 0.954 |  |  | 0.888 | 0.909 | 0.903 | 0.954 | 0.301 | 0.954 | 0.24 | 0.561 |  |  | 0.763 | 0.795
CCc1c2c(nc3ccc(O)cc13)-c1cc3c(c(=O)n1C2)COC(=O)[C@]3(O)CC [SN-38] + O=C(c1cc(Cc2n[nH]c(=O)c3ccccc23)ccc1F)N1CCN(C(=O)C2CC2)CC1 [Olaparib] (first compound max 0.3 µM, 7x7, partner max 10 µM) |  | 0.884 | 0.96 | 1 |  | 0.996 | 0.843 |  | 0.988 | 0.946 | 0.866 | 0.398 | 0.497 | 0.974 | 0.469 | 0.96 | 0.134 | 0.618 | 0.651 | 0.748
C[C@@H](c1ccc2nccn2c1)n1nnc2ncc(-c3cnn(C)c3)nc21 [Savolitinib] + CN(CC[C@H](CSC1=CC=CC=C1)NC2=C(C=C(C=C2)S(=O)(=O)NC(=O)C3=CC=C(C=C3)N4CCC(CC4)[C@H](C5=CC=CC=C5C6=CC=C(C=C6)Cl)O)S(=O)(=O)C(F)(F)F)CCO [AZD4320] (first compound max 1 µM, 7x7, partner max 1 µM) | 0.192 |  |  | 0.758 | 0.258 |  | 1 | 0.2 |  | 0.276 |  |  |  | 0.436 |  |  | 0.506 | 0.566 |  | 
COc1nnc2ccc(N3CCC(c4ccc(OCCN5CCN(C)C(=O)[C@H]5C)cc4)CC3)nn12 [AZD5153] + CN(CC[C@H](CSC1=CC=CC=C1)NC2=C(C=C(C=C2)S(=O)(=O)NC(=O)C3=CC=C(C=C3)N4CCC(CC4)[C@H](C5=CC=CC=C5C6=CC=C(C=C6)Cl)O)S(=O)(=O)C(F)(F)F)CCO [AZD4320] (first compound max 1 µM, 7x7, partner max 1 µM) | 0.813 |  |  | 0.871 | 0.747 |  | 1 | 0.58 |  | 0.925 |  |  |  | 0.588 |  |  | 0.936 | 0.95 |  | 
Cc1c2c(nn1C)CSCc1cc(n(C)n1)CSc1cc(c3ccccc3c1)OCCCc1c(C(=O)O)n(C)c3c-2c(Cl)ccc13 [AZD5991] + C1CN(CCC1(C(=O)N[C@@H](CCO)C2=CC=C(C=C2)Cl)N)C3=NC=NC4=C3C=CN4 [Capivasertib] (first compound max 1 µM, 7x7, partner max 3 µM) | 0.212 | 0.676 | 1 | 0.854 | 0.997 | 1 | 0.323 | 0.433 | 0.355 |  | 0.194 | 0.182 | 0.772 | 0.528 | 0.246 | 0.242 | 0.79 | 0.313 | 0.307 | 0.315
